Laboratory results: patent publication US20200340984A1, “METHODS OF QUANTIFYING CFTR PROTEIN EXPRESSION” (Proteostasis Therapeutics, Inc., priority 2017, published 2020)

Tests used:
CFTR protein = test: CFTR ELISA, HNE-WT cultures; assay type: cell-based, human; conditions: 10 μM, 24 hours, vs DMSO
Protocol: Primary human airway epithelial cells of nasal origin (HNEs) from CF donors homozygous for the F508del mutation (HNE CF) and non-CF donors (HNE WT) were purchased from Epithelix Sàrl (Geneva, Switzerland). The cells were cultured and differentiated as previously described (Pranke et al. (2017) Sci Rep. 7(1):7375). The primary cells were apically mucous washed for 30 minutes prior to treatment with the amplifier PTI-CH (1, 3, or 10 μM) and DMSO for 24 hours.
96-well half area microplates (Greiner Bio-One, Monroe, N.C.) were coated with 3 μg/mL of CFTR antibody UNC596 overnight at 4° C. with gentle shaking. Wells were washed 3 times with TBS-T buffer, blocked with SuperBlock™ T20 Blocking Buffer (Thermo Fisher Scientific) and the washing step was repeated. The CFTR standard used was a fusion peptide (SEQ ID NO:1) that is recognized by UNC450 and UNC596 (GenScript, Piscataway, N.J.).
Serial dilutions of CFTR standard, cell lysates, and nasal brushing samples were prepared in IP lysis buffer. […] The assay was read on the EnVision-Multilabel Reader (Perkin Elmer, Waltham, Mass.).
To further confirm this finding, human nasal epithelial (HNE) cultures obtained from a non-CF (HNE-WT) or CF (HNE-F508del) donor were treated with and amplifier compound. Following 24-hour treatment period, filters were analyzed for either mRNA or protein analyses. […]

CFTR = test: Western blot analysis of CFTR expression, LS411N cells; assay type: cell-based
Protocol: Cells were washed with ice-cold phosphate-buffered saline (PBS) and lysed in Pierce™ immunoprecipitation (IP)-Lysis Buffer (Thermo Fisher Scientific Inc., Grand Island, N.Y.) containing protease inhibitor cocktail (cOmplete™ Mini Protease Inhibitor Cocktail tablets, Roche Diagnostics GmBH, Mannheim, Germany). The cells were incubated with lysis buffer for 30 minutes on ice and centrifuged for 30 minutes at 13,000 rpm. Supernatant was collected and protein concentration was assayed by Pierce™ BCA Protein Assay Kit (Thermo Fisher Scientific). The cell lysates were loaded on a NuPAGE 3%-8% Tris-Acetate Gel (Thermo Fisher Scientific), and transferred onto a nitrocellulose membrane (Trans-Blot® Turbo™ Mini Nitrocellulose Transfer Packs, Bio-Rad, Hercules, Calif.). The membrane was blocked in tris-buffered saline with Tween-20 (TBST) and 5% milk and probed with mouse CFTR antibody (UNC596, 1:500 dilution) at 4° C. with gentle shaking overnight. Next day, membrane was washed three times with (TBST). Then, the membrane was incubated for 2 hours with anti-mouse IgG, horseradish peroxidase (HRP)-linked antibody (Cell Signaling Technology, Beverly, Mass.) at 1:2000 dilution. […]

Compound: O=C(NCCCn1nncc1CO)c1cc(-c2ccccc2)on1 [PTI-CH]
- increase in CFTR protein (CFTR protein): 2.3 fold
- fold changes in CFTR expression (CFTR): 2.2 ×
